Among the test systems are OVCAR-4 ovarian; SNB-19 CNS; K-562 leukemia; DU-145 prostate; SR leukemia; A498 renal; SF-268 CNS; SNB-75 CNS.
What all share (test): NCI tumour cell line growth inhibition, 48 h

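How tested: cells in 96-well plates exposed to compound for 48 hours at five concentrations. Here, GI50 denotes the concentration required for 50% inhibition of growth. Definition used: TGI = concentration required for complete inhibition of growth.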 Some results are limits rather than exact numbers.

Turning to `CC(=O)OC1Oc2cc(C)c(C)cc2-c2oc(=O)c(-c3ccc(F)cc3)cc21` (stereo unspecified), the GI50 is 11.3 µM in the assay with OVCAR-4 ovarian; 11.6 µM in the assay on SNB-19 CNS; 3.01 µM in the assay on K-562 leukemia; 10.3 µM in the assay on DU-145 prostate; 1.21 µM with SR leukemia; 5.06 µM in the assay on A498 renal. Moreover, the GI50 in the assay with SF-268 CNS was 9.32 µM; with SNB-75 CNS, 4.34 µM. The TGI in the assay on OVCAR-4 ovarian was 63.9 µM; with SNB-19 CNS, above 100 µM; in the assay on K-562 leukemia, 12.3 µM; in the assay with DU-145 prostate, 77.7 µM; in the assay with SR leukemia, 5.22 µM; in the assay on A498 renal it was 67.4 µM. Also, the TGI with SF-268 CNS is above 100 µM; with SNB-75 CNS it was 80.8 µM.

Consider `Cc1[nH]nc2ccc3nc(-c4ccc5[nH]ncc5c4)c4c(c3c12)CCCC4`, for which the GI50 was 2.12 µM in the assay with OVCAR-4 ovarian; 2.62 µM with SNB-19 CNS; 1.7 µM in the assay on K-562 leukemia; 1.05 µM in the assay with DU-145 prostate; 0.525 µM in the assay with SR leukemia; 0.28 µM with A498 renal. Further, the GI50 in the assay on SF-268 CNS was 1.97 µM; with SNB-75 CNS, 1.52 µM. For the same molecule, the TGI in the assay on OVCAR-4 ovarian was 28 µM; in the assay on SNB-19 CNS it was 12.1 µM; in the assay on K-562 leukemia it was above 100 µM; in the assay on DU-145 prostate, 12.2 µM; in the assay on SR leukemia, 25.7 µM; with A498 renal, 1.8 µM. Moreover, the TGI in the assay with SF-268 CNS amounted to 17.8 µM; in the assay with SNB-75 CNS, 7.28 µM.

As to `COc1cc(-n2cnc(-c3ccc(Cl)cc3)c2)cc(OC)c1OC`, the GI50 in the assay on OVCAR-4 ovarian was 15.8 µM; in the assay with SNB-19 CNS it was above 100 µM; with K-562 leukemia it was 7.33 µM; in the assay on DU-145 prostate, above 100 µM; in the assay with SR leukemia, 25.4 µM; in the assay with A498 renal, 14.2 µM. The results for the GI50 in the assay on SF-268 CNS and with SNB-75 CNS were 22.9 µM and 16.5 µM, respectively. In addition, the TGI with OVCAR-4 ovarian was 46.6 µM; with SNB-19 CNS, above 100 µM; in the assay with K-562 leukemia, 29.5 µM; with DU-145 prostate, above 100 µM; with SR leukemia it was 62.2 µM; in the assay on A498 renal it was 31.6 µM. Besides, the results for the TGI in the assay with SF-268 CNS and in the assay with SNB-75 CNS were 63.2 µM and 34.8 µM, respectively.

For the molecule `Cc1nn(-c2ccccc2)c2nc3c(nc12)C1=NCCN1C(c1ccc(Cl)cc1)N3` (stereo unspecified), the GI50 with OVCAR-4 ovarian is 7.1 µM; with SNB-19 CNS, 9.91 µM; in the assay on K-562 leukemia it was 2.42 µM; in the assay on DU-145 prostate it was 5.9 µM; with SR leukemia, 2.48 µM; in the assay on A498 renal, 4.01 µM. In addition, the GI50 was 5.61 µM in the assay on SF-268 CNS and 1.62 µM with SNB-75 CNS. Further, the TGI in the assay on OVCAR-4 ovarian was determined as 20.9 µM; in the assay with SNB-19 CNS it was 26.9 µM; in the assay on K-562 leukemia it was 6.19 µM; in the assay with DU-145 prostate, 17.9 µM; in the assay with SR leukemia it was 6.32 µM; in the assay with A498 renal, 17.9 µM. Also, the TGI was 17.6 µM in the assay on SF-268 CNS and 6.25 µM with SNB-75 CNS.

`CCn1c(-c2nonc2N)nc2cncc(C(=O)NCCNC)c21`: the GI50 in the assay on OVCAR-4 ovarian is above 22.8 µM; in the assay on SNB-19 CNS, above 25 µM; with K-562 leukemia, above 25 µM; with DU-145 prostate, 22.8 µM; in the assay on SR leukemia, 4.53 µM; in the assay with A498 renal it was 0.834 µM. For the same molecule, the values for the GI50 in the assay on SF-268 CNS and in the assay on SNB-75 CNS were 7.78 µM and 0.246 µM, respectively. The TGI in the assay with OVCAR-4 ovarian was above 25 µM; with SNB-19 CNS, above 25 µM; in the assay on K-562 leukemia it was above 25 µM; with DU-145 prostate, above 25 µM; in the assay on SR leukemia it was above 25 µM; in the assay with A498 renal, above 19.8 µM. Also, the TGI was above 25 µM with SF-268 CNS and 6.61 µM in the assay on SNB-75 CNS.

On to `CCC(c1ccc2cc(O)ccc2c1)C(C)(C)C(=O)O` (stereo unspecified), for which the TGI in the assay with OVCAR-4 ovarian, with SNB-19 CNS, in the assay with K-562 leukemia, in the assay with DU-145 prostate, in the assay with SR leukemia and in the assay on A498 renal was above 100 µM in each case. Further, the TGI with SF-268 CNS and in the assay with SNB-75 CNS was above 100 µM throughout.

`COc1cc(C2CC(c3ccccc3)=NN2C(C)=O)cc(OC)c1OC` (stereo unspecified): the GI50 with OVCAR-4 ovarian is 11.7 µM; with SNB-19 CNS, 5.63 µM; in the assay on K-562 leukemia it was 2.77 µM; in the assay with DU-145 prostate it was 5.26 µM; in the assay with SR leukemia, 0.996 µM; in the assay with A498 renal, 4.79 µM. Besides, the GI50 is 5.37 µM in the assay with SF-268 CNS and 1.74 µM in the assay on SNB-75 CNS. For the same molecule, the TGI was above 100 µM in the assay on OVCAR-4 ovarian; above 100 µM with SNB-19 CNS; above 100 µM with K-562 leukemia; 77.3 µM with DU-145 prostate; above 100 µM in the assay with SR leukemia; above 100 µM in the assay on A498 renal. Further, the TGI was above 100 µM in the assay with SF-268 CNS and 13.3 µM with SNB-75 CNS.

`CC1OC(n2c3ccccc3c3c4c(c5c6ccccc6[nH]c5c32)C(=O)N(CCN2CCOCC2)C4=O)CC(O)C1O` (stereo unspecified): the GI50 is 4.03 µM with OVCAR-4 ovarian; 2.18 µM with SNB-19 CNS; 1.85 µM with K-562 leukemia; 2 µM in the assay on DU-145 prostate; 0.257 µM with SR leukemia; 5.13 µM in the assay on A498 renal. Further, the GI50 with SF-268 CNS was 1.66 µM; in the assay on SNB-75 CNS it was 0.729 µM. The TGI turned out to be 14.1 µM in the assay with OVCAR-4 ovarian; 17.8 µM in the assay on SNB-19 CNS; 50 µM with K-562 leukemia; 7.85 µM in the assay with DU-145 prostate; 14.5 µM with SR leukemia; 13.4 µM in the assay with A498 renal. Also, the TGI in the assay with SF-268 CNS worked out at 9.65 µM; in the assay on SNB-75 CNS it was 5.87 µM.

As to `COc1ccc2c(c1)/C(=C\c1c(Cl)n(C)c3ccccc13)C(=O)N2`, the GI50 was 7.07 µM with OVCAR-4 ovarian; 1.85 µM in the assay on SNB-19 CNS; 3.71 µM with K-562 leukemia; 3.07 µM in the assay on DU-145 prostate; 0.157 µM in the assay with SR leukemia; 0.611 µM with A498 renal. Moreover, the GI50 in the assay on SF-268 CNS was 2.87 µM; with SNB-75 CNS, 1.67 µM. Besides, the TGI is above 100 µM in the assay with OVCAR-4 ovarian; 23 µM in the assay on SNB-19 CNS; above 100 µM in the assay with K-562 leukemia; 15 µM with DU-145 prostate; 0.605 µM with SR leukemia; 4.31 µM in the assay with A498 renal. The TGI was determined as 35.1 µM in the assay on SF-268 CNS and 23.6 µM with SNB-75 CNS.

(Values after PubChem BioAssay (NCI).)
